For test [1], the system named is Chenopodium album, Abutilon theophrasti, Setaria viridis, Xanthium strumarium. Briefly: Glasshouse weed kill, fomesafen with/without adjuvants (Example 4). Format: in vivo. As to conditions: % leaf area killed; mean over fomesafen 60 and 120 g/ha, 7, 14 and 21 days, four species; adjuvant 0.2% (Turbocharge 0.5% w/w). As for the experimental part:
The efficacy of the aromatic acid ester Morflex ®560 (tri-n-hexyltrimellitate) as an adjuvant for the herbicide fomesafen was tested against four weed species in a glasshouse and compared to the well-know adjuvants, acetyl tributyl citrate and Turbocharge® which were added at concentrations of 0.2 and 0.5% w/w respectively. The adjuvant oils were emulsified using a small amount of the surfactant Pluronic® PE 10500, which was present in the composition at a concentration of 0.02% v/v.
An agrochemical composition was prepared containing 0.2% v/v of the adjuvant in a track sprayer and was applied at a volume of 200 liters per hectare. Fomesafen was applied at either 60 or 120 grams of pesticide per hectare on each of the weed species. The weed species and their growth stage at spraying were Chenopodium album (CHEAL; growth stage 14), Abutilon theophrasti (ABUTH; growth stage 12), Setaria viridis (SETVI; growth stage 13), and Xanthium strumarium (XANST; growth stage 12).
Each spray test was replicated three times. The efficacy of the herbicide was assessed visually and expressed as a percentage of the leaf area killed. Samples were assessed at time periods of 7, 14 and 21 days following application. […]

In test [2] the test system is Polygonum convolvulus, Brachiaria platyphylla, Digitaria sanguinalis, Amaranthus tuberculatus. Description: Glasshouse weed kill, mesotrione with/without adjuvants (Example 5). Format: in vivo. The settings on record: % leaf area killed; mean over mesotrione 45 and 90 g/ha, 7, 14 and 21 days, four species; adjuvant 0.2% (Tween 20 0.5% w/w). As for the experimental part: The efficacy of the aromatic ester tri-n-hexyltrimellitate (Morflex®560) was tested in a glasshouse against four weed species using the herbicide mesotrione. An agrochemical composition was prepared containing 0.2% v/v of the adjuvant in a track sprayer and was applied at a volume of 200 liters per hectare. The adjuvant oils were emulsified using a small amount of the surfactant Pluronic® PE 10500, which was present in the composition at a concentration of 0.02% v/v. Mesotrione was applied at either 45 or 90 grams of pesticide per hectare on weeds which had been grown to the 1.3 or 1.4 leaf stage. The weed species were Polygonum convolvulus (POLCO), Brachiaria platyphylla (BRAPL) Digitaria sanguinalis (DIGSA) and Amaranthus tuberculatus (AMATU).
Each spray test was replicated three times. The efficacy of the herbicide was assessed visually and expressed as a percentage of the leaf area killed. Samples were assessed at time periods of 7, 14 and 21 days following application. The results shown in Table 6 below are mean averages over the two rates of mesotrione, three relicates, four weed species and the three assessment timings and are compared to the efficacy of mesotrione in the absence of an adjuvant, and mesotrione in the presence of the commercially available adjuvants acetyl tributyl citrate or Tween®20 which were used at concentrations of 0.2 and 0.5% w/w respectively.

Test [3] deals with Abutilon theophrasti, Chenopodium album, Digitaria sanguinalis, Setaria viridis. Briefly: Glasshouse weed kill, nicosulfuron with/without adjuvants (Example 3). Format: in vivo. The settings on record: % leaf area killed; mean over nicosulfuron 30 and 60 g/ha, 14 and 21 days, four species; adjuvant 0.2%. As for the experimental part: The efficacy of the aromatic acid ester Morflex ®560 (tri-n-hexyltrimellitate) as an adjuvant for the herbicide nicosulfruon was tested against four weed species in a glasshouse and compared to the well-know adjuvants, tris-2-ethylhexyl phosphate and acetyl tributyl citrate which were tested at concentrations of 0.2% w/w. The adjuvant oils were emulsified using a small amount of the surfactant Pluronic® PE 10500, which was present in the composition at a concentration of 0.02% v/v.
An agrochemical composition was prepared containing 0.2% v/v of the adjuvant in a track sprayer, and was applied at a volume of 200 liters per hectare. Nicosulfuron was applied at a rate of either 30 or 60 grams of pesticide per hectare. The weed species and their growth stage at spraying were Abutilon theophrasti (ABUTH; growth stage 13), Chenopodium album (CHEAL; growth stage 14), Digitaria sanguinalis (DIGSA; growth stage 13), and Setaria viridis (SETVI; growth stage 13).
Each spray test replicated three times. The efficacy of the herbicide was assessed visually and expressed as a percentage of the leaf area killed. Samples were assessed at time periods of 14 and 21 days following application. […]

For test [4] the test system is unchanged. Format: in vivo. As for the experimental part:
The efficacy of the aromatic esters tri-n-hexyltrimellitate (Morflex®560) and tri-isodecylmellitate (Morflex®530) as adjuvants for nicosulfuron were tested in a glasshouse against four weed species. An agrochemical composition was prepared containing 0.2% v/v of the adjuvant in a track sprayer, and was applied at a volume of 200 liters per hectare. The adjuvant oils were emulsified using a small amount of the surfactant Pluronic® PE 10500, which was present in the composition at a concentration of 0.02% v/v. Nicosulfuron was applied at a rate of either 30 or 60 grams per hectare. The weed species and their growth stage at spraying were Abutilon theophrasti (ABUTH; growth stage 13), Chenopodium album (CHEAL; growth stage 14), Digitaria sanguinalis (DIGSA; growth stage 13), and Setaria viridis (SETVI; growth stage 13).
Each spray test was replicated three times. The efficacy of the herbicide was assessed visually and expressed as a percentage of the leaf area killed. Samples were assessed at time periods of 14 and 21 days following application. […] In this experiment Atplus®411F was added at the higher rate of 0.5% v/v. The other adjuvants were added at 0.2% v/v.

Test [5] relates to Alopecurus myosuroides, Avena fatua, Lolium perenne, Setaria viridis. Briefly: Glasshouse weed kill, pinoxaden with/without adjuvants (Example 6). Format: in vivo. The settings on record: % leaf area killed; mean over pinoxaden 7.5 and 15 g/ha, 14 and 21 days, four species; adjuvant 0.2%. As for the experimental part: The efficacy of the aromatic ester tri-n-hexyltrimellitate (Morflex®560) was tested in a glasshouse against four weed species using the herbicide pinoxaden. An agrochemical composition was prepared containing 0.2% v/v of the adjuvant in a track sprayer and was applied at a volume of 200 liters per hectare. The adjuvant oils were emulsified using a small amount of the surfactant Pluronic® PE 10500, which was present in the composition at a concentration of 0.02% v/v. Pinoxaden was applied at either 7.5 or 15 grams of pesticide per hectare on each of the weed species. The weed species and their growth stage at spraying were Alopecurus myosuroides (ALOMY; growth stage 13), Avena fatua (AVEFA; growth stage 12); Lolium perenne (LOLPE; growth stage 13), Setaria viridis (SETVI; growth stage 14).
Each spray test was replicated three times. The efficacy of the herbicide was assessed visually and expressed as a percentage of the leaf area killed. Samples were assessed at time periods of 14 and 21 days following application. The results shown in table 7 below are mean averages over the two rates of pinoxaden, three replicates, four weed species and the two assessment timings, and are compared to the efficacy of pinoxaden in the absence of adjuvant and pinoxaden in the presence of the known adjuvant acetyl tributyl citrate which was used at a concentration of 0.2% w/w.

Test [6] shares this test system. Briefly: Glasshouse weed kill, pinoxaden with/without adjuvants (Example 8). Format: in vivo. As for the experimental part:
The efficacy of the aromatic esters tri-n-hexyltrimellitate (Morflex®560) and tri-isodecylmellitate (Morflex®530) as adjuvants for pinoxaden were tested in a glasshouse against four weed species. An agrochemical composition was prepared containing 0.2% v/v of the adjuvant in a track sprayer and was applied at a volume of 200 liters per hectare. Pinoxaden was applied at either 7.5 or 15 grams per hectare on each of the weed species. The weed species and their growth stage at spraying were Alopecurus myosuroides (ALOMY; growth stage 13), Avena fatua (AVEFA; growth stage 12); Lolium perenne (LOLPE; growth stage 13), Setaria viridis (SETVI; growth stage 14).
Each spray test was replicated three times. The efficacy of the herbicide was assessed visually and expressed as a percentage of the leaf area killed. Samples were assessed at time periods of 7 and 14 days following application. The results shown in Table 9 below are mean averages over the two rates of pinoxaden, three replicates, four weed species and the two assessment timings. The results were compared to the efficacy of pinoxaden in the absence of an adjuvant and pinoxaden in the presence of either tri-2-ethylhexyl phosphate (applied at 0.5% v/v) or methyl oleate (applied at 0.2% v/v).

Another test deals with Septoria tritici. Description: Septoria tritici infection of wheat plants, isopyrazam spray with/without adjuvants. Format: in vivo, Septoria tritici (on wheat plants). As to conditions: conclusion from Table 2. Here is the method: The efficacy of the following aromatic acid esters tri-n-hexyltrimellitate (Morflex®560) and tri-isodecyl trimellitate (Morflex®530), as adjuvants in compositions comprising isopyrazam was tested and compared to the standard formulations (both EC and SC) of the fungicide, which lack this type of adjuvant.
Wheat plants were inoculated with the fungus Septoria tritici. Five days after inoculation the plants were sprayed with a diluted emulsion concentrate or suspension concentrate formulation of the fungicide isopyrazam at rates of 3, 10, 30 and 100 mg of the fungicide per litre of spray solution, using a laboratory track sprayer which delivered the spray at a rate of 200 liters per hectare. Spray tests were also carried out with diluted suspension concentrate additionally comprising each of the benzoate adjuvants described above. These adjuvants were added to the spray solution at a rate of 0.5% w/w, based on the quantity of spray liquor. The adjuvant oils were emulsified using a small amount of the surfactant Pluronic® PE 10500, which was present in the composition at a concentration of 0.02% v/v. The leaves of the plants were assessed visually 14 days after the spray application and the damage was expressed as the percentage of the leaf area infected.

The subject of a further test is Tetranychus urticae. Briefly: Mortality of two spotted spider mite on French bean plants, abamectin with/without Morflex 560. The settings on record: 10 days, larva and adults averaged, Morflex 560 0.1% v/v where present. Format: in vivo, Tetranychus urticae (on Phaseolus vulgaris). As for the experimental part: The efficacy of tri-n-hexyltrimellitate (Morflex® 560) as an adjuvant in compositions containing abamectin was tested and compared to the efficacy of abamectin compositions which lack this type of adjuvant. The Morflex 560 was present at 0.1% v/v in the abamectin compositions. The surfactants polyoxyethylene sorbitan monooleate and an ethoxylated castor oil were also present in all the abamectin compositions tested. Two week old French bean (Phaseolus vulgaris) plants were infested with a mixed population of two spotted spider mite Tetranychus urticae. One day after infestation the plants were treated with the test compositions, with a track sprayer from the top with a rate of 200 liters per hectare. Plants were incubated in the greenhouse for 10 days and the evaluation was done on mortality against Larva and Adults, just on the lower side (untreated) of the leaves. Each experiment was replicated twice and the results were averaged. The mortality against Larva and Adults was then averaged.

The record followed here is patent US9173397B2, “Formulation component” (Syngenta Limited, priority 2011, dated 2015).

Like-named read-outs stand apart in the source and are kept apart here.

On to `CS(=O)(=O)NC(=O)c1cc(Oc2ccc(C(F)(F)F)cc2Cl)ccc1[N+](=O)[O-]` [Fomesafen, reference compound], for which, in test [1], the “Mean percentage kill, mean across species” value (“Mean percentage kill” below) is on record as 22.5 D %.
`CS(=O)(=O)c1ccc(C(=O)C2C(=O)CCCC2=O)c([N+](=O)[O-])c1` [Mesotrione, reference compound]: the “Mean percentage kill” value in test [2] was found to be 34.0 B %.
`COc1cc(OC)nc(NC(=O)NS(=O)(=O)c2ncccc2C(=O)N(C)C)n1` [Nicosulfuron, reference compound]: the “Mean percentage kill” value in test [3] is recorded as 42.5 B %; in test [4] (% leaf area killed, mean over nicosulfuron 30 and 60 g/ha, 14 and 21 days, four species, adjuvant 0.2% v/v (Atplus 411F 0.5% v/v)) it was 31.1 E %.
On to `CCc1cc(C)cc(CC)c1-c1c(OC(=O)C(C)(C)C)n2n(c1=O)CCOCC2` [Pinoxaden, reference compound], for which the “Mean percentage kill” value in test [5] is 11.4 C %; in test [6] (% leaf area killed, mean over pinoxaden 7.5 and 15 g/ha, 7 and 14 days, four species, adjuvant 0.2% v/v (tri-2-ethylhexyl phosphate 0.5% v/v)) it was 2.3 D %.
As for `CC(C)CCCCCCCOC(=O)c1ccc(C(=O)OCCCCCCCC(C)C)c(C(=O)OCCCCCCCC(C)C)c1` [Tri-isodecyl trimellitate], the “adjuvant efficacy in words (isopyrazam, S. tritici)” value in the test with Septoria tritici is “as efficacious as the commercial tank mix adjuvant Turbocharge®”. Moreover, the “adjuvant efficacy in words (nicosulfuron)” value in test [4] (conclusion from Table 8) is listed as “increases the efficacy of the herbicide nicosulfuron”. Also, the “adjuvant efficacy in words (pinoxaden)” value in test [6] (conclusion from Table 9) was “increases the efficacy of pinoxaden”.
Consider Abamectin, for which the “% mortality of Tetranychus urticae” value in the test on Tetranychus urticae (abamectin 0.2 ppm) came to 0%; with Tetranychus urticae (abamectin 0.4 ppm), 0%; with Tetranychus urticae (abamectin 0.8 ppm) it was 27%; with Tetranychus urticae (abamectin 1.5 ppm) it was 70%; with Tetranychus urticae (abamectin 3 ppm) it was 95%.
